Source: ChEMBL document CHEMBL1156977, “Synthesis of new beta-1-C-alkylated imino-L-iditols: A comparative study of their activity as beta-glucocerebrosidase inhibitors” (Bioorg Med Chem, 2010)
pIC50, pKi: −log10 of the molar value.

How the values were obtained:
[1] = biological target: T1, Lysosomal acid glucosylceramidase (Homo sapiens) (UniProt P04062); assay: Inhibition of human recombinant beta-glucocerebrosidase assessed as p-nitrophenolate accumulation at 1000 uM preincubated for 10 mins before p-nitrophenyl-beta-d-glucopyranoside addition measured after 10 mins by […]
T1 sequence (whole entry): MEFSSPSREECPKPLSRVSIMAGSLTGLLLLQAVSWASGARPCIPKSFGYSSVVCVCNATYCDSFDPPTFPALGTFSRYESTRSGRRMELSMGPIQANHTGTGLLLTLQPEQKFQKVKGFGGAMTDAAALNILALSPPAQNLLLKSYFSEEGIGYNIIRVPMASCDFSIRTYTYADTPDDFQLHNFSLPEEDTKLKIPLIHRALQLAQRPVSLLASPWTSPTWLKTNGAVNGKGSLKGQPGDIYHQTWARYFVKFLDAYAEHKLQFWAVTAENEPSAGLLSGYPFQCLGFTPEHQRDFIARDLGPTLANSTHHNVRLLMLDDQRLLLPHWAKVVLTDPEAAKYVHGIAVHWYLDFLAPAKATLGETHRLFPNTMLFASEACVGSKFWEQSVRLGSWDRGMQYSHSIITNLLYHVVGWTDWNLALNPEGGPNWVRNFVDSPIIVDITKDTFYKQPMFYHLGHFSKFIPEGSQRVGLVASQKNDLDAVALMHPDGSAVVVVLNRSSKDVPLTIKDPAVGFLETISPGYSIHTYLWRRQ

[2] = biological target: T2, Lysosomal acid glucosylceramidase (Homo sapiens, UniProt P04062); assay: Inhibition of human recombinant beta-glucocerebrosidase assessed as p-nitrophenolate accumulation preincubated for 10 mins before p-nitrophenyl-beta-d-glucopyranoside addition measured after 10 mins by […]
T2 sequence (P04062 whole entry): T1 sequence (whole entry)

[3] = biological target: T1, Lysosomal acid glucosylceramidase (Homo sapiens); assay: Inhibition of misfolded beta-glucocerebrosidase in human gaucher cells assessed as increase in enzyme activity at 10 nM; type: cell-based

| pIC50 [2] | SMILES | also measured |
| --- | --- | --- |
| – | OCC(O)C[C@H]1N[C@@H](CO)[C@@H](O)[C@H](O)[C@H]1O (stereo partly drawn) | inhibition [1]: < 50% |
| – | CCCCCCCCC[C@H]1NC[C@@H](O)[C@H](O)[C@H]1O | pKi [2]: 8.66; fold change (FC) [3]: 2 |
| 3.31 | CCCC1N[C@@H](CO)[C@@H](O)[C@H](O)[C@H]1O (single isomer, unassigned) | – |
| 6.25 | CCC[C@H]1NC[C@@H](O)[C@H](O)[C@H]1O | – |
| 3.83 | CCCCC1N[C@@H](CO)[C@@H](O)[C@H](O)[C@H]1O (single isomer, unassigned) | – |
| 7.72 | CCCCCC[C@H]1NC[C@@H](O)[C@H](O)[C@H]1O | – |
| 4.37 | CCCCCC[C@H]1N[C@@H](CO)[C@@H](O)[C@H](O)[C@H]1O | – |
